Results reported in patent US11298346B2, “Methods for treatment of fibrotic diseases” (Beta Cat Pharmaceuticals, Inc., priority 2017, dated 2022).
Several values for one entry are separate records, joined by “and”; a condition that tells them apart may be missing. Identical values can stand only once.

What was measured:
[1] = Lung concentration after nebulizing delivery of Tegavivint formulations (whole body exposure); format: in vivo, bcat-Ex3 mice; settings: mouse lung, individual animals, listed as BC2059
Description: Tegavivint particles suspended in Poloxamer 188/sorbitol at a concentration of 25 mg/mL were used. These formulations were applied to the mice in the form of aerosols, through the method of whole body exposure. The mice were placed inside a plastic box. This box was sealed and connected by one of its sides to the outlet of the nebulizer device, and on the other side to a system of closed water. The whole procedure was carried out inside the fume hood of the animal room.
For the first experiment, the nebulizer kit of SATER LABS was used. This device uses the jet system. The device was primed with 5 ml of the drug, i.e. 125 mg of tegavivint (BC2059), for each group of 5 mice, and then the device was connected to the power source for nebulization. The energy was supplied by a DeVilbiss compressor model 646, which allows 5-7 pounds of pressure, and a flow of 6-8 liters per minute. For the second experiment, the device used was the Altera, ultrasonic nebulizer.
For the two experiments, 10 male bcat-Ex3 mice were used for each set. These mice were separated into 2 groups of 5 mice each. The first group received the drug daily, for 5 consecutive days. The second group received the drug only once (the fifth day). On day 5 all mice were sacrificed, lung harvested, and samples were stored at −30 degrees, in two labeled nylon bags, each containing the 5 samples from each group.

[2] = system: primary palmar fascia fibroblasts derived from the fibrotic palmar fascia (DD249 cells); assay: Alamar Blue proliferation/viability assay, DD249 cells; format: cell-based, human; settings: for proliferation/viability: DD249 cells, 48 and 72 hrs relative to 24 hrs
Description: (§1) Tegavivint (BC-2059) powder was reconstituted it in 100% dimethyl sulfoxide (DMSO) to a 10_mM stock solution. The stock was diluted to 100 nM in serum-free media (α minimal essential medium, αMEM), and further diluted to 100 pM in serum-free αMEM immediately before the analyses were performed. Serial dilutions from 100 pM down to 0.78 pM were assessed in various assays. 0.001% DMSO in αMEM was used as the vehicle control, and αMEM alone was used as an untreated control, in a subset of analyses.
(§2) Proliferation/viability analyses were performed in triplicate on primary palmar fascia fibroblasts derived from the fibrotic palmar fascia (DD cells) of 2 patients with Dupuytren's disease (DD249, DD77) and syngeneic primary palmar fascia fibroblasts derived from visibly non-fibrotic palmar fascia (PF cells) from these patients (PF249, PF77). Cells were cultured on type-1 collagen coated 96 well trays for these analyses to better replicate substrate interactions in vivo. Two independent assays were used for these analyses: Alamar Blue assays for analyses up to 72 hrs in cells derive from 1 patient, and Water Soluble Tetrazolium-(WST-1) assays for analyses up to 24 hrs in cells derived from the other patients. Significant effects of treatment on proliferation over time were detected by ANOVA repeated measures.

[3] = system: bleomycin-induced idiopathic pulmonary fibrosis (IPF); assay: Nebulized tegavivint nanosuspension in mouse model of bleomycin-induced idiopathic pulmonary fibrosis; format: in vivo, C57BL/6 male mice
Description: The purpose of this experiment was to investigate tegavivint nanosuspension in a mouse model of bleomycin-induced idiopathic pulmonary fibrosis (IPF). Test articles 10 were as follows:
Tegavivint (BC2059) in a nano-milled suspension 25 mg/mL in 0.625% poloxamer 188 and 10% sorbitol. The compound was refrigerated at about 4° C.
Nebulizing equipment was Altera ultrasonic eRapid machine nebulizer (model #678G1002).
Animals were 8-12 week old C57BL/6 male mice (Jackson Lab, Bar Harbor, Me.).
Murine model of pulmonary fibrosis was induced by intratracheally (IT) injected bleomycin (APP Pharmaceuticals, Schaumburg, Ill.). One dose of 0.025 U bleomycin dissolved in 50 microliters of Saline 0.9%, or PBS as control was administered to each animal on day 0.
Tegavivint nanosuspension was applied to Group 3 in the form of aerosols, through the method of whole body exposure. The mice were placed inside a plastic box. This box was sealed and connected by one of its sides to the outlet of the nebulizer device, and on the other side to a system of closed water. The whole procedure was carried out inside the fume hood of the animal room. In each treatment session, 5 ml of 25 mg/ml Tegavivint (125 mg) was nebulized over 15 min to each group of 4-5 mice in the chamber. To increase exposure of the mice to the aerosol, Tegavivint that precipitated in the aerosol chamber was collected with a syringe and re-nebulized a second and a third time. Mice were nebulized twice a day between day 5 and day 21 after administration of bleomycin. Group 1 and 2 received nebulized vehicle 5 ml in the same manner.
The body weight of animals was recorded on Days 0, 5, 8, 12, 16, 19, and 21.
Measurements of lung mechanics were performed on Day 21 as previously described (Morales-Nebreda L, et al. AJRCMB 2015) on Day 21 using a FlexiVent mouse ventilator (Scireq, Montreal, PQ, Canada) according to the protocols established by Scireq. A standard ventilation history for each mouse was obtained with three total lung capacity maneuvers before the forced oscillation and quasistatic pressure-volume curve protocols that were used to calculate airway resistance, dynamic and quasistatic tissue compliance, and elastance.
On Day 21 all animals were sacrificed and lungs were harvested. Total lung collagen content was evaluated using the Hydroxyproline Assay as previously described (Morales-Nebreda L, et al. AJRCMB 2015). In brief, mouse lungs were harvested and suspended in 1 ml of 0.5 M acetic acid and then homogenized, first with a tissue homogenizer (60 s on ice) and then using 15 strokes in a Dounce homogenizer (on ice). The resulting homogenate was spun (12,000×g) for 10 minutes, and the supernatant was used for subsequent analyses. Collagen standards were prepared in 0.5 M acetic acid using rat tail collagen (Sigma-Aldrich, St. Louis, Mo.). Picrosirius red dye was prepared by mixing 0.2 g of Sirius red F3B (Sigma-Aldrich) with 200 ml of […]; 1 ml of the Picrosirius red dye was added to 100 μl of the collagen standard or the lung homogenates and then mixed continuously at room temperature on an orbital shaker for 30 minutes. The precipitated collagen was then pelleted and washed once with 0.5 M acetic acid (12,000×g for 15 min each). The resulting pellet was resuspended in 1 ml of 0.5 M NaOH and Sirius red staining was quantified spectrophotometrically (540 nm) using a colorimetric plate reader (Bio-Rad, Hercules, Calif.).

[4] = system: syngeneic primary palmar fascia fibroblasts derived from visibly non-fibrotic palmar fascia (PF249 cells); assay: Alamar Blue proliferation/viability assay, PF249 cells; format: cell-based, human; settings: for proliferation/viability: PF249 cells, 48 and 72 hrs relative to 24 hrs
Description: as §1, §2

[5] = Aerosol jet nebulizer (Sater Labs), 1 day (single-dose on Day 5)
[6] = Aerosol jet nebulizer (Sater Labs), 5 day (5 daily doses on Days 1-5)
[7] = Nebulizer ultrasonic eRapid (Altera), 1 day (single-dose on Day 5)
[8] = Nebulizer ultrasonic eRapid (Altera), 5 day (5 daily doses on Days 1-5)
[9] = Group 3, inhaled tegavivint after bleomycin injury
[10] = Group 3: IT bleomycin Day 0, 5 ml of 25 mg/ml tegavivint aerosol BID Day 5-21, Day 21, individual animals

Tegavivint
Lung Concentration (ng/g) [1, 5]: 5040 ng/g and 16800 ng/g and 56800 ng/g and 5200 ng/g and 17100 ng/g
Lung Concentration (ng/mL) [1, 5]: 1260 ng/mL and 4190 ng/mL and 14200 ng/mL and 1300 ng/mL and 4270 ng/mL
Lung Concentration (ng/g) [1, 6]: 18600 ng/g and 6600 ng/g and 14500 ng/g and 12300 ng/g and 14200 ng/g
Lung Concentration (ng/mL) [1, 6]: 4640 ng/mL and 1650 ng/mL and 3620 ng/mL and 3080 ng/mL and 3550 ng/mL
Lung Concentration (ng/g) [1, 7]: 11400 ng/g and 11600 ng/g and 34600 ng/g and 15100 ng/g and 2400 ng/g
Lung Concentration (ng/mL) [1, 7]: 2840 ng/mL and 2910 ng/mL and 8660 ng/mL and 3780 ng/mL and 601 ng/mL
Lung Concentration (ng/g) [1, 8]: 19100 ng/g and 17200 ng/g and 18800 ng/g and 12200 ng/g and 22900 ng/g
Lung Concentration (ng/mL) [1, 8]: 4770 ng/mL and 4290 ng/mL and 4690 ng/mL and 3040 ng/mL and 5730 ng/mL
proliferation/viability ([2]; 25 pM): viable and able to proliferate to significantly greater cell numbers
proliferation/viability ([2]; 50 pM): unable to proliferate
therapeutic window concentration (proliferation of fibrosis-derived but not syngeneic palmar fascia derived cells inhibited) ([2]; DD versus PF cells, preliminary analyses): approximately 50 pM
cytotoxic concentrations ([2]; fibrosis-derived fibroblasts, both proliferation/viability assays and visual inspection): > 100 pM
effects on cell proliferation/viability ([2]; ≤25 pM): did not identify any consistent effects
body weight loss caused by bleomycin induced lung injury ([3]; Group 3, inhaled tegavivint): reversed the body weight loss
lung compliance [3, 9]: reversed the compliance values to near those of the sham-treated controls
total lung collagen content (Hydroxyproline assay) [3, 9]: reversed this change and the collagen levels are closed to sham-treated controls
Compliance (ml/cm H20) [3, 10]: 0.05515 ml/cm H20 and 0.05604 ml/cm H20 and 0.06762 ml/cm H20 and 0.0543 ml/cm H20 and 0.0561 ml/cm H20
Hydroxyproline (μg/half lung) [3, 10]: 70.016 μg/half lung and 39.44 μg/half lung and 45.68 μg/half lung and 58.784 μg/half lung and 64.296 μg/half lung
Change in body weight (%) ([3]; Group 3: IT bleomycin Day 0, 5 ml of 25 mg/ml tegavivint aerosol BID Day 5-21, individual animals): −2.83% and 5.2% and 7.3% (2×) and 7.9%
proliferation/viability ([4]; 25 pM): proliferated to significantly greater cell numbers
proliferation/viability ([4]; 50 pM): proliferated to significantly greater cell numbers
cytotoxic concentrations ([4]; syngeneic fibroblasts from visibly unaffected palmar fascia, both proliferation/viability assays and visual inspection): > 100 pM
